Reference: patent US20210045986A1, “COMPOSITION FOR PREVENTION OR TREATMENT OF SKIN INFECTION” (CARESIDE CO., LTD., priority 2018, published 2021)

Assay: Precipitate generation prevention experiment of liquid formulation under accelerated storage
Type: physicochemical
Set-up: key: O: Generated; X: Non-Generated
Details: for Whether or not a precipitate is generated: 1.0% malic acid, 0.3% sodium borate; for Result: whether or not a precipitate is generated: chlorhexidine gluconate 0.1, terbinafine hydrochloride 0.1, ethanol 59 wt %
Text: As described above, most liquid medicines include excipients including chloride ions, and the composition of the present invention in combination with terbinafine hydrochloride may also cause precipitation. However, it may further include malic acid and sodium borate to prevent the generation of precipitates of terbinafine hydrochloride. Hereinafter, a description will be given of the precipitate generation experiments of terbinafine hydrochloride.
First, a liquid formulation containing terbinafine hydrochloride, chlorhexidine gluconate and ciclopirox olamine is prepared as shown in the following [Table 3]. Malic acid or polycarboxylic acid other than malic acid is added to the prepared liquid formulation, and the presence or absence of a precipitate is observed.
First, malic acid, citric acid, oxalic acid and tartaric acid are prepared as a polycarboxylic acid such as malic acid. To the liquid formulation prepared in the above [Table 3], polycarboxylic acid was added in 0.1, 0.3, 0.5, 0.7, 1.0, 2.0, 3.0, 4.0, 5.0 (w/v %), respectively, and then chlorhexidine gluconate is adjusted to a stable pH of 5.0 using a pH adjusting agent. And, the liquid formulations were stored under accelerated conditions of 40±2° C. and relative humidity of 75±5% to observe the presence or absence of precipitates. […]
Next, after adding 1.0% of malic acid and 0.3% of sodium borate, an experiment is performed to determine whether precipitates are generated by adjusting the content of chlorhexidine gluconate, terbinafine hydrochloride, and ciclopirox olamine. The experimental results are shown in the following [Table 6] and [Table 7], and experiments were performed on whether or not precipitates of the liquid formulations prepared without adding malic acid and sodium borate are generated were shown in [Table 8].

[1] = concentration of the ingredient 0.1 %
[2] = concentration of the ingredient 0.3 %
[3] = concentration of the ingredient 0.5 %
[4] = concentration of the ingredient 1.0 %
[5] = concentration of the ingredient 2.0 %
[6] = concentration of the ingredient 3.0 %
[7] = concentration of the ingredient 4.0 %
[8] = concentration of the ingredient 5.0 %
[9] = concentration of the ingredient 6.0 %

| Whether or not a precipitate is generated [1] | Whether or not a precipitate is generated [2] | Whether or not a precipitate is generated [3] | Whether or not a precipitate is generated [4] | Whether or not a precipitate is generated [5] | Whether or not a precipitate is generated [6] | Whether or not a precipitate is generated [7] | Whether or not a precipitate is generated [8] | Whether or not a precipitate is generated [9] | Structure (SMILES) | also measured |
| --- | --- | --- | --- | --- | --- | --- | --- | --- | --- | --- |
| X | X | X | X | X | O | O | O | O | CN(C/C=C/C#CC(C)(C)C)Cc1cccc2ccccc12.Cl [Terbinafine hydrochloride, [(2E)-6,6-dimethylhept-2-en-4-yn-1-yl] (methyl) (naphthalen-1-ylmethyl)aminehydrochloride] |  |
| X | X | X | X | X | X | X | O | O | N=C(NCCCCCCNC(=N)NC(=N)Nc1ccc(Cl)cc1)NC(=N)Nc1ccc(Cl)cc1 [Chlorhexidine Gluconate, chlorhexidine gluconate] |  |
|  |  |  |  |  |  |  |  |  | Cc1cc(C2CCCCC2)n(O)c(=O)c1 [Ciclopirox Olamine, 2(1H)-Pyridinone, 6-cyclohexyl-1-hydroxy-4-methyl-compound with 2-aminoethanol (1:1)] | Result: whether or not a precipitate is generated (ciclopirox olamine 0.1 wt %, malic acid and sodium borate, pH 5.3~5.7): X; Result: whether or not a precipitate is generated (ciclopirox olamine 0.1 wt %, without malic acid and sodium borate, pH adjustment x): O; Result: whether or not a precipitate is generated (ciclopirox olamine 0.2 wt %, without malic acid and sodium borate, pH adjustment x): O; Result: whether or not a precipitate is generated (ciclopirox olamine 0.3 wt %, malic acid and sodium borate, pH 5.3~5.7): X; Result: whether or not a precipitate is generated (ciclopirox olamine 0.3 wt %, without malic acid and sodium borate, pH adjustment x): O; Result: whether or not a precipitate is generated (ciclopirox olamine 0.4 wt %, without malic acid and sodium borate, pH adjustment x): O; Result: whether or not a precipitate is generated (ciclopirox olamine 0.5 wt %, malic acid and sodium borate, pH 5.3~5.7): X; Result: whether or not a precipitate is generated (ciclopirox olamine 0.5 wt %, without malic acid and sodium borate, pH adjustment x): O; Result: whether or not a precipitate is generated (ciclopirox olamine 0.6 wt %, without malic acid and sodium borate, pH adjustment x): O; Result: whether or not a precipitate is generated (ciclopirox olamine 0.7 wt %, without malic acid and sodium borate, pH adjustment x): O; Result: whether or not a precipitate is generated (ciclopirox olamine 0.8 wt %, without malic acid and sodium borate, pH adjustment x): O; Result: whether or not a precipitate is generated (ciclopirox olamine 0.9 wt %, without malic acid and sodium borate, pH adjustment x): O; Result: whether or not a precipitate is generated (ciclopirox olamine 1.0 wt %, malic acid and sodium borate, pH 5.3~5.7): X; Result: whether or not a precipitate is generated (ciclopirox olamine 2.0 wt %, malic acid and sodium borate, pH 5.3~5.7): X; Result: whether or not a precipitate is generated (ciclopirox olamine 3.0 wt %, malic acid and sodium borate, pH 5.3~5.7): X; Result: whether or not a precipitate is generated (ciclopirox olamine 4.0 wt %, malic acid and sodium borate, pH 5.3~5.7): X; Result: whether or not a precipitate is generated (ciclopirox olamine 5.0 wt %, malic acid and sodium borate, pH 5.3~5.7): X; Result: whether or not a precipitate is generated (ciclopirox olamine 6.0 wt %, malic acid and sodium borate, pH 5.3~5.7): X |
